Experimental data taken from patent publication US20150105252A1, “SUBSTITUTED PYRAZOLES AS HERBICIDES” (E I DU PONT DE NEMOURS AND COMPANY, priority 2013, published 2015).

Tests used:
large crabgrass = assay: Test F preemergence; type: in vivo, Digitaria sanguinalis
Text: (§1) Seeds of plant species selected from corn (Zea mays), soybean (Glycine max), velvetleaf (Abutilon theophrasti), lambsquarters (Chenopodium album), wild poinsettia (Euphorbia heterophylla), pigweed, palmer (palmer pigweed, Amaranthus palmeri), common waterhemp (Amaranthus rudis), surinam grass (Brachiaria decumbens), large crabgrass (Digitaria sanguinalis), crabgrass, Brazil (Brazilian crabgrass, Digitaria horizontalis), fall panicum (Panicum dichotomiflorum), giant foxtail (Setaria faberii), green foxtail (Setaria viridis), goosegrass (Eleusine indica), johnsongrass (Sorghum halepense), common ragweed (Ambrosia elation), barnyardgrass (Echinochloa crus-galli), southern sandbur (Cenchrus echinatus), arrowleaf sida (Sida rhombifolia), Italian ryegrass (Lolium multiflorum), dayflower, VA (Virginia (VA) dayflower, Commelina virginica), field bindweed (Convolvulus arvensis), cocklebur (common cocklebur, Xanthium strumarium), morningglory (Ipomoea coccinea), nightshade (eastern black nightshade, Solanum ptycanthum), kochia (Kochia scoparia), yellow nutsedge (Cyperus esculentus), and hairy beggarticks (Bidens pilosa), were planted into a silt loam soil and treated preemergence with test chemicals formulated in a non-phytotoxic solvent mixture which included a surfactant.
(§2) At the same time, plants from these crop and weed species and also horseweed (Canada horseweed, Conyza canadensis), smartweed (ladysthumb smartweed, Polygonum persicaria), waterhemp_RES1, (ALS & Triazine resistant common waterhemp, Amaranthus rudis), and waterhemp_RES2, (ALS & HPPD resistant common waterhemp, Amaranthus rudis) were treated with postemergence applications of test chemicals formulated in the same manner. Plants ranged in height from 2 to 18 cm for postemergence treatments (1- to 4-leaf stage). Treated plants and controls were maintained in a greenhouse for 14 to 21 days, after which time all species were compared to controls and visually evaluated. Plant response ratings, summarized in Table F, are based on a scale of 0 to 100 where 0 is no effect and 100 is complete control. A dash (-) response means no test result.

giant foxtail = assay: Test F preemergence; type: in vivo, Setaria faberii
Text: as §1, §2

deadnettle = assay: Test D preemergence; type: in vivo, Lamium amplexicaule; conditions: Preemergence, scale 0 to 100
Outline: (§3)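 Pre: sown in silt loam, sprayed at once. Post: grown in peat-moss/vermiculite mix, sprayed at 1–4 leaves (2–18 cm). Formulation: non-phytotoxic solvent + surfactant. Read-out: visual 0–100 vs controls, 14–21 d.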

oat, wild = assay: Test D preemergence; type: in vivo, Avena fatua; conditions: Preemergence, scale 0 to 100
Outline: as §3

foxtail, green = assay: Test D postemergence; type: in vivo, Setaria viridis; conditions: scale 0 to 100
Text: (§4) Seeds of plant species selected from bluegrass (annual bluegrass, Poa annua), blackgrass (Alopecurus myosuroides), canarygrass (littleseed canarygrass, Phalaris minor), chickweed (common chickweed, Stellaria media), galium (catchweed bedstraw, Galium aparine), bromegrass, downy (downy bromegrass, Bromus tectorum), field poppy (Papaver rhoeas), field violet (Viola arvensis), foxtail, green (green foxtail, Setaria viridis), deadnettle (henbit deadnettle, Lamium amplexicaule), ryegrass, Italian (Italian ryegrass, Lolium multiflorum), kochia (Kochia scoparia), lambsquarters (Chenopodium album), oilseed rape (Brassica napus), pigweed (redroot pigweed, Amaranthus retroflexus), chamomile (scentless chamomile, Matricaria inodora), speedwell (bird's-eye speedwell, Veronica persica), barley, spring (spring barley, Hordeum vulgare), wheat, spring (spring wheat, Triticum aestivum), buckwheat, wild (wild buckwheat, Polygonum convolvulus), mustard, wild (wild mustard, Sinapis arvensis), oat, wild (wild oat, Avena fatua), radish, wild (wild radish, Raphanus raphanistrum), windgrass (Apera spica-venti), Russian thistle (Salsola kali), barley, winter (winter barley, Hordeum vulgare), and wheat, winter (winter wheat, Triticum aestivum) were planted into a silt loam soil and treated preemergence with test chemicals formulated in a non-phytotoxic solvent mixture which included a surfactant.
(§5) At the same time, these species were planted in pots containing Redi-Earth® planting medium (Scotts Company, 14111 Scottslawn Road, Marysville, Ohio 43041) comprising spaghnum peat moss, vermiculite, wetting agent and starter nutrients and treated with postemergence applications of the test chemicals formulated in the same manner. Plants ranged in height from 2 to 18 cm (1- to 4-leaf stage). Treated plants and controls were maintained in a controlled growth environment for 14 to 21 days after which time all species were compared to controls and visually evaluated. Plant response ratings, summarized in Table D, are based on a scale of 0 to 100 where 0 is no effect and 100 is complete control. A dash (-) response means no test result.

lambsquarters = assay: Test D postemergence; type: in vivo, Chenopodium album; conditions: scale 0 to 100
Outline: as §3

speedwell = assay: Test D postemergence; type: in vivo, Veronica persica; conditions: scale 0 to 100
Outline: as §3

wheat, spring = assay: Test D postemergence; type: in vivo, Triticum aestivum; conditions: scale 0 to 100
Text: as §4, §5

wheat, winter = assay: Test D postemergence; type: in vivo, Triticum aestivum; conditions: scale 0 to 100
Text: as §4, §5

radish, wild = assay: Test D postemergence; type: in vivo, Raphanus raphanistrum; conditions: scale 0 to 100
Text: as §4, §5

[1] = Preemergence, 31 g ai/ha, scale 0 to 100
[2] = Preemergence, 62 g ai/ha, scale 0 to 100
[3] = Preemergence, 125 g ai/ha, scale 0 to 100
[4] = preemergence, 8 g ai/ha, scale 0 to 100, 100 is complete control
[5] = preemergence, 16 g ai/ha, scale 0 to 100, 100 is complete control
[6] = Preemergence, 250 g ai/ha, scale 0 to 100

Row | SMILES | Plant response rating, Large Crabgrass (large crabgrass; [2]) | Plant response rating, Large Crabgrass (large crabgrass; [3]) | Plant response rating, Large Crabgrass (large crabgrass; [5]) | Plant response rating, Giant Foxtail (giant foxtail; [2]) | Plant response rating, Giant Foxtail (giant foxtail; [3]) | Plant response rating, Giant Foxtail (giant foxtail; [5]) | Plant response rating, Deadnettle (deadnettle; 31 g ai/ha) | Plant response rating, Deadnettle (deadnettle; 62 g ai/ha) | Plant response rating, Deadnettle (deadnettle; 125 g ai/ha) | Plant response rating, Deadnettle (deadnettle; 250 g ai/ha) | Plant response rating, Oat, Wild (oat, wild; 62 g ai/ha) | Plant response rating, Oat, Wild (oat, wild; 125 g ai/ha) | Plant response rating, Oat, Wild (oat, wild; 250 g ai/ha) | Foxtail, Green plant response rating (foxtail, green; Postemergence, 31 g ai/ha) | Foxtail, Green plant response rating (foxtail, green; Postemergence, 125 g ai/ha) | Foxtail, Green plant response rating (foxtail, green; Postemergence, 250 g ai/ha) | Foxtail, Green plant response rating (foxtail, green; postemergence, 62 g ai/ha) | Lambsquarters plant response rating (lambsquarters; Postemergence, 31 g ai/ha) | Lambsquarters plant response rating (lambsquarters; Postemergence, 125 g ai/ha) | Lambsquarters plant response rating (lambsquarters; Postemergence, 250 g ai/ha) | other results
1 | CCc1cc(-c2ccc(C(F)(F)F)cc2)nn1Cc1ccnc(C(F)(F)F)c1 [Compound 110] | 75 | 85 | 5 | 95 | 98 | 40 |  |  |  |  |  |  |  |  |  |  |  |  |  |  | Plant response rating, Large Crabgrass (large crabgrass; [1]): 10; Plant response rating, Large Crabgrass (large crabgrass; [4]): 5; Plant response rating, Giant Foxtail (giant foxtail; [1]): 70; Plant response rating, Giant Foxtail (giant foxtail; [4]): 25
2 | CCCc1cc(C(=O)NC(C)C)nn1Cc1cc(C(F)(F)F)nn1C [Compound 201] | 70 | 100 | 0 | 75 | 75 | 0 | 100 | 100 | 100 | 100 | 60 | 100 | 100 | 30 | 40 | 55 | 30 | 75 | 90 | 90 | Lambsquarters plant response rating (lambsquarters; postemergence, 62 g ai/ha): 75; Speedwell plant response rating (speedwell; Postemergence, 31 g ai/ha): 70; Speedwell plant response rating (speedwell; Postemergence, 125 g ai/ha): 70; Speedwell plant response rating (speedwell; Postemergence, 250 g ai/ha): 100; Speedwell plant response rating (speedwell; postemergence, 62 g ai/ha): 70; Wheat, Spring plant response rating (wheat, spring; Postemergence, 31 g ai/ha): 15; Wheat, Spring plant response rating (wheat, spring; Postemergence, 125 g ai/ha): 15; Wheat, Spring plant response rating (wheat, spring; Postemergence, 250 g ai/ha): 30; Wheat, Spring plant response rating (wheat, spring; postemergence, 62 g ai/ha): 15; Wheat, Winter plant response rating (wheat, winter; Postemergence, 31 g ai/ha): 20; Wheat, Winter plant response rating (wheat, winter; Postemergence, 125 g ai/ha): 25; Wheat, Winter plant response rating (wheat, winter; Postemergence, 250 g ai/ha): 40; Wheat, Winter plant response rating (wheat, winter; postemergence, 62 g ai/ha): 20; Radish, Wild plant response rating (radish, wild; Postemergence, 31 g ai/ha): 65; Radish, Wild plant response rating (radish, wild; Postemergence, 125 g ai/ha): 65; Radish, Wild plant response rating (radish, wild; Postemergence, 250 g ai/ha): 65; Radish, Wild plant response rating (radish, wild; postemergence, 62 g ai/ha): 65; Plant response rating, Large Crabgrass (large crabgrass; [6]): 100; Plant response rating, Large Crabgrass (large crabgrass; preemergence, scale 0 to 100, 100 is complete control): 35; Plant response rating, Giant Foxtail (giant foxtail; [6]): 100
3 | CCc1cc(C(=O)NCC(F)(F)F)nn1Cc1ccnc(SC(F)(F)F)c1 [Compound 214] |  |  |  |  |  |  | 90 | 100 | 100 | 100 | 20 | 70 | 95 | 15 | 35 | 60 | 15 | 65 | 80 | 90 | Lambsquarters plant response rating (lambsquarters; postemergence, 62 g ai/ha): 65; Speedwell plant response rating (speedwell; Postemergence, 31 g ai/ha): 90; Speedwell plant response rating (speedwell; Postemergence, 125 g ai/ha): 95; Speedwell plant response rating (speedwell; Postemergence, 250 g ai/ha): 100; Speedwell plant response rating (speedwell; postemergence, 62 g ai/ha): 90; Wheat, Spring plant response rating (wheat, spring; Postemergence, 31 g ai/ha): 15; Wheat, Spring plant response rating (wheat, spring; Postemergence, 125 g ai/ha): 15; Wheat, Spring plant response rating (wheat, spring; Postemergence, 250 g ai/ha): 20; Wheat, Spring plant response rating (wheat, spring; postemergence, 62 g ai/ha): 15; Wheat, Winter plant response rating (wheat, winter; Postemergence, 31 g ai/ha): 15; Wheat, Winter plant response rating (wheat, winter; Postemergence, 125 g ai/ha): 20; Wheat, Winter plant response rating (wheat, winter; Postemergence, 250 g ai/ha): 40; Wheat, Winter plant response rating (wheat, winter; postemergence, 62 g ai/ha): 15; Radish, Wild plant response rating (radish, wild; Postemergence, 31 g ai/ha): 65; Radish, Wild plant response rating (radish, wild; Postemergence, 125 g ai/ha): 70; Radish, Wild plant response rating (radish, wild; Postemergence, 250 g ai/ha): 100; Radish, Wild plant response rating (radish, wild; postemergence, 62 g ai/ha): 65
4 | CCc1cc(C(=O)NCC(F)(F)F)nn1Cc1ccnc(Br)c1 [Compound 224] | 98 | 100 |  | 40 | 75 |  |  |  |  |  |  |  |  |  |  |  |  |  |  |  | Plant response rating, Large Crabgrass (large crabgrass; [6]): 100; Plant response rating, Giant Foxtail (giant foxtail; [6]): 98
